The source of these data is US20180273528A1 (LES LABORATOIRES SERVIER, priority 2015, published 2018).

Experiment [1] has as its target T1, His-TEV-DYRK1A Kinase domain (aa127-485) (Homo sapiens, UniProt Q13627).
T1 construct: His-TEV-DYRK1A Kinase domain (aa127-485); His tag (N); TEV protease cleavage site (N)
In words: Kinase ADP assay (ADP Hunter), DYRK1A kinase domain. Particulars: 20 μM ATP. The experiment is classed as biochemical. The procedure:
The enzyme reaction was conducted in assay buffer (pH 7.4), containing 15 mM Hepes; 20 mM NaCl; 1 mM EGTA; 10 mM MgCl2; 0.02% Tween20 and 0.1 mg/ml Bovine-y-globulin. Test compounds of the invention were added in reaction buffer in a range of concentrations for 10 minutes at 30° C. in the presence of 20 nM DYRK1A enzyme, 40 μM peptide substrate and 20 μM ATP. Detection reagents (DiscoveRx 90-0083), ADP Hunter Plus Reagent A and then ADP Hunter Plus Reagent B were added. After a following 20 minutes incubation at 30° C., ADP Hunter Plus Stop Solution was added. The fluorescence intensity was measured at 590 nm.

A further experiment has as its target DYRK1A (Homo sapiens, UniProt Q13627). In words: Cellular DYRK1 autophosphorylation assay in U2-OS cells. The settings on record: U2-OS cells transfected with HA-tagged human DYRK1A, 5 hours exposure; read-out: IC50 (μM) P-Ser520-Dyrk1A -Cell assay. The arrangement: full-length, wild-type human DYRK1A (NM_001396) with an HA tag; expressed in transfected cells; host or cells: human U2-OS osteosarcoma cells, transient transfection of a pcDNA3.1 plasmid. Type of experiment: cell-based. As for the experimental part:
On day 2, cells were exposed to a range of concentrations of the test compounds of the invention for 5 hours. […] The relative levels of phospho-Ser520-DYRK1A were assayed using either western blotting or the Mesoscale ELISA platform. For analysis by western blot, lysates were diluted into Laemmli sample buffer (Bio-Rad) containing 5% v/v β-mercaptoethanol, heated for 5 min at 95° C., and resolved on Tris-glycine gels or NuPage Bis-Tris gels (Novex; Invitrogen). Biotinylated molecular weight standards (Cell Signaling Technology) were included in all gels. Proteins were transferred to nitrocellulose membranes (Hybond, ECL; Amersham), which were blocked in Tris-buffered saline/0.1% tween 20 (TBST) containing 5% milk, and probed at 4° C. overnight with anti-phospho-Ser520-DYRK1A antibody (Eurogentec SE6974-75; 0.23 μg/ml in 5% BSA) or anti DYRK1A antibody (Abnova H00001859; 0.5 μg/ml in 5% milk). Peroxidase-conjugated secondary antibodies were diluted into 5% milk and applied to membranes for 1 h at 20° C. Chemiluminescence detection was performed using the ECL plus western blotting detection kit (Amersham) and was recorded on ECL plus hyperfilm (Amersham). Blots were scanned using the Bio-Rad GS-800 calibrated densitometer and quantitative analysis of western blots was performed using TotalLab software (Amersham). IC50 values for inhibition of phospho-Ser520-DYRK1A were calculated from dose-response curves plotting the ratio between phospho-Ser520-DYRK1A and total DYRK1A signals at each concentration. […] Anti-phospho-Ser520-DYRK1A antibody (Eurogentec SE6974-75; […]) and anti DYRK1A antibody (Abnova H00001859; 3 μg/ml) was then added for 1 hour at RT, followed by addition of Sulfa-TAG anti-rabbit detection antibody (ref MSD R32AB; 1 μg/ml) and Sulfa-TAG anti-mouse detection antibody (ref MSD R32-AC-1; 1 μg/ml). After a further 1 hour, Read Buffer was added and plates were read on the Sector Imager 2400 (Mesoscale). IC50 values for inhibition of phospho-Ser520-DYRK1A were calculated from dose-response curves.

On to `CC[C@@H](Cn1c(C)nc2ccc(-c3cc(N)nc(N)c3)nc21)Oc1ccccc1` (single isomer, unassigned) [Example 119], for which the IC50 worked out at 0.004 µM in experiment [1] and 0.105 µM on DYRK1A.
The matching figures for `Cc1nc2ccc(-c3cc(N)nc(N)c3)nc2n1CCCOc1ccccc1` [Example 143, 4-[2-methyl-3-(3-phenoxypropyl)-3H-imidazo[4,5-b]pyridin-5-yl]pyridine-2,6-diamine]: 0.013 µM and 0.037 µM.
For the compound `Cc1nc2ccc(-c3cc(N)nc(N)c3)nc2n1C[C@H](C)N(C)c1ccccc1` (single isomer, unassigned) [Example 122], the IC50 in experiment [1] is 0.02 µM; on DYRK1A it was 0.122 µM.
The corresponding values for `Cc1nc2ccc(-c3cc(N)nc(N)c3)nc2n1C[C@H](C)Oc1cccc(F)n1` (single isomer, unassigned) [Example 188] are 0.065 µM and 0.181 µM.
As to `COc1ccccc1O[C@@H](C)Cn1c(C)nc2ccc(-c3cc(N)nc(N)c3)nc21` (single isomer, unassigned) [Example 141], the half-inhibitory concentration (IC50) in experiment [1] worked out at 0.01 µM; on DYRK1A, 0.191 µM.
The matching figures for `Cc1cccc(O[C@H](C)Cn2c(C)nc3ccc(-c4cc(N)nc(N)c4)nc32)c1` (single isomer, unassigned) [Example 128]: 0.037 µM and 0.163 µM.
The matching figures for `Cc1cccc(O[C@@H](C)Cn2c(C)nc3ccc(-c4cc(N)nc(N)c4)nc32)c1` [Example 127, 4-{2-methyl-3-[(2S)-2-(3-methylphenoxy)propyl]0.3H-imidazo[4,5-b]pyridin-5-yl}pyridine-2,6-diamine]: 0.015 µM and 0.089 µM.
The corresponding values for `Cc1nc2ccc(-c3cc(N)nc(N)c3)nc2n1CCOc1cccc(CF)n1` [Example 172, 4-[3-(2-{[6-(fluoromethyl)pyridin-2-yl]oxy}ethyl)-2-methyl-3H-imidazo[4,5-b]pyridin-5-yl]pyridine-2,6-diamine] are 0.007 µM and 0.092 µM.
Regarding `Cc1nc2ccc(-c3cc(N)nc(N)c3)nc2n1CCOc1ccc(F)cn1` [Example 171, 4-(3-{2-[(5-fluoropyridin-2-yl)oxy]ethyl}-2-methyl-3H-imidazo[4,5-b]pyridin-5-yl)pyridine-2,6-diamine], the half-maximal inhibitory concentration (IC50) in experiment [1] was 0.018 µM; at DYRK1A, 0.109 µM.
The matching figures for `Cc1nc2ccc(-c3cc(N)nc(N)c3)nc2n1C[C@H](C)Oc1ncccc1Cl` (single isomer, unassigned) [Example 190]: 0.032 µM and 0.148 µM.
The matching figures for `COc1cccc(O[C@@H](C)Cn2c(C)nc3ccc(-c4cc(N)nc(N)c4)nc32)c1` (single isomer, unassigned) [Example 125]: 0.022 µM and 0.151 µM.
The corresponding values for `Cc1nc2ccc(-c3cc(N)nc(N)c3)nc2n1CCc1ccc2c(c1)OCCO2` [Example 77, 4-{3-[2-(2,3-dihydro-1,4-benzodioxin-6-yl)ethyl]-2-methyl-3H-imidazo[4,5-b]pyridin-5-yl}pyridine-2,6-diamine] are 0.008 µM and 0.077 µM.
`Cc1nc2ccc(-c3cc(N)nc(N)c3)nc2n1CC(C)(C)Oc1ccccc1` [Example 116, 4-[2-methyl-3-(2-methyl-2-phenoxypropyl)-3H-imidazo[4,5-b]pyridin-5-yl]pyridine-2,6-diamine]: the results for the IC50 (in experiment [1]; at DYRK1A) were 0.056 µM and 0.267 µM, respectively.
The matching figures for `Cc1nc2ccc(-c3cc(N)nc(N)c3)nc2n1C[C@@H](C)Sc1ccccc1` (single isomer, unassigned) [Example 136]: 0.028 µM and 0.247 µM.
The matching figures for `Cc1nc2ccc(-c3cc(N)nc(N)c3)nc2n1CCOc1cccc(N)n1` [Example 196, 4-(3-{2-[(6-aminopyridin-2-yl)oxy]ethyl}-2-methyl-3H-imidazo[4,5-b]pyridin-5-yl)pyridine-2,6-diamine]: 0.012 µM and 0.141 µM.
The matching figures for `Cc1nc2ccc(-c3cc(N)nc(N)c3)nc2n1C[C@H](C)Oc1ccc(F)cc1` (single isomer, unassigned) [Example 129]: 0.037 µM and 0.13 µM.
For `Cc1nc2ccc(-c3cc(N)nc(N)c3)nc2n1C[C@@H](C)Oc1ccccc1F` (single isomer, unassigned) [Example 134], the IC50 in experiment [1] turned out to be 0.038 µM; at DYRK1A, 0.205 µM.
The corresponding values for `Cc1nc2ccc(-c3cc(N)nc(N)c3)nc2n1C[C@H](C)Oc1cccc(F)c1` (single isomer, unassigned) [Example 123] are 0.01 µM and 0.082 µM.
The corresponding values for `Cc1nc2ccc(-c3cc(N)nc(N)c3)nc2n1C[C@@H](C)N(C)c1ccccc1` (single isomer, unassigned) [Example 121] are 0.008 µM and 0.041 µM.
The corresponding values for `CC[C@H](Cn1c(C)nc2ccc(-c3cc(N)nc(N)c3)nc21)Oc1ccccc1` (single isomer, unassigned) [Example 120] are 0.003 µM and 0.161 µM.
Consider `Cc1nc2ccc(-c3cc(N)nc(N)c3)nc2n1CCC1CCCO1` (stereo not shown) [Example 85, 4-{2-methyl-3-[2-(tetrahydrofuran-2-yl)ethyl]-3H-imidazo[4,5-b]pyridin-5-yl}pyridine-2,6-diamine], for which the values for the IC50 (in experiment [1]; at DYRK1A) were 0.016 µM and 0.143 µM, respectively.
The matching figures for `Cc1nc2ccc(-c3cc(N)nc(F)c3)nc2n1C1CC(F)(F)C1` [Example 240, 4-[3-(3,3-difluorocyclobutyl)-2-methyl-3H-imidazo[4,5-b]pyridin-5-yl]-6-fluoropyridin-2-amine]: 0.016 µM and 0.153 µM.
The matching figures for `CCC1(Cn2c(C)nc3ccc(-c4cc(N)nc(N)c4)nc32)CC1` [Example 88, 4-{3-[(1-ethylcyclopropyl)methyl]-2-methyl-3H-imidazo[4,5-b]pyridin-5-yl}pyridine-2,6-diamine]: 0.012 µM and 0.103 µM.
The matching figures for `Cc1nc2ccc(-c3cc(N)nc(N)c3)nc2n1C[C@H](C)Oc1ccccc1F` (single isomer, unassigned) [Example 133]: 0.015 µM and 0.074 µM.
For the compound `Cc1nc2ccc(-c3cc(N)nc(N)c3)nc2n1[C@H]1C[C@@H]1Cc1ccccc1` (single isomer, unassigned) [Example 138], the IC50 in experiment [1] turned out to be 0.052 µM; on DYRK1A it was 0.1 µM.
In the case of `Cc1nc2ccc(-c3cc(N)nc(N)c3)nc2n1CC1CC1C` (stereo not shown) [Example 86, 4-{2-methyl-3-[(2-methylcyclopropyl)methyl]-3H-imidazo[4,5-b]pyridin-5-yl}pyridine-2,6-diamine], the values for the concentration for half-maximal inhibition (IC50) (in experiment [1]; at DYRK1A) were 0.019 µM and 0.151 µM, respectively.
The matching figures for `Cc1nc2ccc(-c3cc(N)nc(N)c3)nc2n1CCOc1cccc(C#N)n1` [Example 197, 6-{2-[5-(2,6-diaminopyridin-4-yl)-2-methyl-3H-imidazo[4,5-b]pyridin-3-yl]ethoxy}pyridine-2-carbonitrile]: 0.007 µM and 0.054 µM.
The matching figures for `Cc1nc2ccc(-c3cc(N)nc(N)c3)nc2n1C[C@@H](C)Oc1cccc(F)c1` (single isomer, unassigned) [Example 124]: 0.006 µM and 0.061 µM.
The corresponding values for `Cc1nc2ccc(-c3cc(N)nc(N)c3)nc2n1CC1Cc2ccccc21` (single isomer, unassigned) [Example 113, 4-[3-(bicyclo[4.2.0]octa-1,3,5-trien-7-ylmethyl)-2-methyl-3H-imidazo[4,5-b]pyridin-5-yl]pyridine-2,6-diamine] are 0.01 µM and 0.243 µM.
